Results taken from paper PMC9391200, “Charge-based interactions through peptide position 4 drive diversity of antigen presentation by human leukocyte antigen class I molecules” (PNAS Nexus, 2022).

What was measured:
HLA-A*24:02 [1] = target: T1, HLA-A*24:02 (Homo sapiens, UniProt P04439, D101N/D140Y/D185E/E176V/E190D/F33S/G103R/G107R/I119L/I121M/I306V/K335N/L105A/L180Q/L300P/N151K/N90K/Q86E/Q94H/R106L/R138H/R89G/T104I/T345S/V100E/W191G/Y123F); assay: Peptide stability assay on WT HLA-A*24:02 (urea denaturation, W6/32 ELISA); format: binding; conditions: biotinylated A*24:02 refolded with excess peptide, incubated with 0, 2, 4 or 6 M urea, relative to reference peptide TYTQDFNKF (stability index 100%), result in words
Description: (§1) All HLA-A*02:01- and A*24:02-restricted peptides used in the study were purchased from Genscript at purity of > 80% with quality control by reverse-phase HPLC and mass spectrometry (SC1208). Recombinant HLA-A*02:01 and HLA-A*24:02 molecules were made and re-folded as described elsewhere ([83]). Conformation-dependent W6/32 antibodies used in these assays were produced in vitro from hybridoma cell lines (Integra, Chur, Switzerland). All A*02:01 and A*24:02 binding assays were done as described previously ([83]). In brief, streptavidin donor beads (PerkinElmer, 6760002) and acceptor beads (PerkinElmer, 6762001) conjugated to W6/32 were incubated with A*02:01 or A*24:02 that had been preincubated with varying peptide concentrations. Plates were read by PerkinElmer EnVision and data was analyzed using GraphPad Prism. Peptide stability assays were performed as described previously ([84]). In brief, biotinylated A*02:01 and A*24:02 molecules were refolded with excess peptide then incubated with 0, 2, 4, or 6 M urea. Nondenatured peptides were detected by W6/32 staining using ELISA as described previously ([85]). Stability was calculated as a percentage relative to a reference known binder peptide with an assigned stability index of 100%. […] was used as the reference peptide for A*02:01 and TYTQDFNKF was used as the reference peptide for A*24:02 in both the binding and stability assays.

HLA-A*24:02 [2] = target: T1, HLA-A*24:02; assay: Peptide binding assay on WT HLA-A*24:02 (W6/32 donor/acceptor bead assay); conditions: recombinant HLA-A*24:02 preincubated with varying peptide concentrations; streptavidin donor beads and W6/32-conjugated acceptor beads; EnVision read-out; reference peptide TYTQDFNKF; result in words
Description: as §1

Sequence	HLA-A*24:02/peptide complex stability (HLA-A*24:02 [1])	peptide binding to WT A*24:02 (HLA-A*24:02 [2])
KFKDNVILL [p1 lysine-substituted …]	increased	–
VYGFVRACL	–	strong-binding
QFKDNVILL [native A*24:02-restricted peptide with subdominant anchors F2 and LΩ]	–	relatively poor binding
TFSDEAVHF	–	weak-binding
